Columns and labels:
human P2Y13 receptor = human P2Y13 receptor (Homo sapiens (Human), UniProt Q9BPV8); test: Ca++ flux agonist assay on P2Y13 receptor transfected 1321N1 cells; format: cell-based; settings: comma is decimal sign
Experimental: Compounds were assayed for their agonist activity on P2Y13 GPCR transfected cells using a Ca++ flux assay (associated to fluorescent dye detection) with the Reference Compound as positive reference. Two cell lines, 1321N1-P2Y13 stably expressing human P2Y13 receptor, and 1321N1 parental cell line as control, were used in this assay. 1321N1 Parental and 1321N1 P2Y13 were seeded into T25 flasks at 3 million cells per flask, respectively. Cells were incubated at 37 degrees Celsius in 5% CO2 overnight. The day after, cells were transfected with Gqi5 protein using Fugene transfection reagent (Roche's Fugene Reagent).
After 24 hours of transfection, cells were collected from flasks and seeded in 384-well plates at 8000 cells per well. The assays were carried out 48 hours after Gqi5 transfection.
Methods: The Ca++ flux assay was conducted according to the manufacturer's protocol (Molecular Devices FLIPR Calcium 4 Assay kit (R8142). Briefly, cell culture media were aspirated from the wells and replaced with 25 μL of Hank's buffer or PBS buffer. 25 μL of Ca++ dye was added into each assay well. The plate was incubated for 1 hour at 37° C. in 5% CO2. After the incubation, the plate was transferred to FlexStation III (FlexStation III (Molecular Devices)). The compounds were automatically injected into each well.

C57Bl6 mice = test: Dose response on bile physiology after single oral gavage in mice; format: in vivo; settings: oral gavage 0.003, 0.03 and 0.3 mg/kg, bile analyzed 6 hours later
Experimental: FIG. 16A-J: Increase of bile secretion following activation of P2Y13r pathway in mice. C57Bl/6J mice (n=10) were fasted for 2 h and then intravenously injected with Cangrelor® or Compound IIa (10 nmoles/kg). Four hours later the gallbladders were removed and analyzed for: Bile acids content (FIG. 16A); Bile cholesterol content (FIG. 16B). C57Bl/6J mice (n=10) were fasted for 2 h followed by single oral dose of P2Y13r agonist Compound IIa at 3, 30 or 300 μg/kg. Six hours later bile acids contents (FIG. 16C); bile cholesterol content (FIG. 16D), and bile acid content of liver (FIG. 16E) were evaluated using HPLC and enzymatic kits for gallbladers. Plasma samples were collected at time 0 and after 6 h of treatment, then analyzed for: total cholesterol (▴), unesterified cholesterol (●), esterified cholesterol (▪) and HDL cholesterol (▾) determined using either enzymatic kits or Lipoprint® for HDL cholesterol (FIG. 16F). C57Bl/6J mice (n=5) were intravenously injected with [^3H]-cholesterol-labelled mouse HDL (FIG. 16G), [^3H]-cholesteryl oleate-labelled mouse HDL (FIG. 16H) or [^3H]-cholesterol-labelled mouse LDL (FIG. 16I), and with Cangrelor® or Compound IIa (10 nmoles/kg). Radioactivity present in the liver was determined 2 hours later for the HDL or 5 hours later for the LDL. Cholesterol content of feces from treated animals (100 μg/kg) was determined by Charge aerosol detection (FIG. 16J). *p<0.05, **p<0.01.
The dose response after oral gavage was determined for illustrative compounds of the invention. The chosen doses were 0.003, 0.03 and 0.3 mg/kg. The selected compounds of the invention were administrated by oral gavage and 6 hours later the mice are sacrificed and the bile content was analyzed (FIGS. 6-11).
Bile acids were diluted in PBS (1:5000) and the concentration was measured according to the manufacturer protocol with slight modifications. Concentrations of bile acids in the standard curve were varied from […] and the enzymatic reaction was performed for 20 minutes. 4 μl of 1:5000 bile dilution was used for concentration determination.
Bile phospholipids were measured according to the manufacturer protocol. Briefly, the standards were varied from 0 to 20 μg/ml and 4 μl of bile was measured in the assay. The reaction was performed for 5 minutes at 37° C.
Bile phospholipids were measured according to the manufacturer protocol. Briefly, the standards were varied from 0 to 60 μg/ml and 10 μl of bile (dilution 1:10) was measured in the assay. The reaction was performed for 5 minutes at 37° C.

HepG2 cells [1] = test: In vitro HDL internalization in human hepatocytes (HepG2) cells; format: cell-based; settings: compound 1 μM; 3H-labeled HDL 75 μg/ml, 10 min at 37° C.
Experimental: FIG. 3: Single-dose effect of the selected molecules on HDL internalization by HepG2 cells. Cells were incubated for 10 min at 37° C. with 75 μg/ml ^3H cholesterol Cholesteryl Oleate [Cholesteryl-1,2-^3H(N)] HDL, Reference Compound (100 nM) and illustrative compounds of the invention (1 μM). Data are expressed as the percentage of internalized radioactivity with respect to the control value (set as […]). *p<0.005, **p<0.0001.
The effect of illustrative compounds of the invention on HDL internalization was measured by an in vitro assay on HepG2 cells (FIG. 3). ^3H cholesterol Cholesteryl Oleate [Cholesteryl-1,2-^3H(N)] labeled HDL] (available from PerkinElmer http://www.perkinelmer.com/Catalog/Product/ID/NET746L001MC) was loaded on HepG2 cells in presence of illustrative compounds of the invention (final concentration 1 μM). […] It was determined that Compounds XIa, IIc, IIa and Ih (R-isomer) have a strong impact on HDL uptake by HepG2 cells; Compounds IIb, VIIa and VIIIa have a modest impact on HDL uptake by HepG2 cells.
^3H cholesterol Cholesteryl Oleate [Cholesteryl-1,2-^3H(N)] (Perkin Elmer) solution (250 μL) was dried and resuspended in acetone (250 μL). The solution was mixed with Lipoprotein delipidated serum (20 mL at 40 mg/mL) and DTNB (0.4 μM final concentration). HDL (7 mg) was added and incubated overnight at 4° C. on gentle rotation. The HDL was purified on KBr gradient as previously described.
Hepatocytes were plated at 300,000 cells/well in 6×-well plates. Two days later, the cells were washed once with DMEM and incubated for 1 hour in DMEM at 37° C. 75 μg of radio-labeled HDL (6500 dpm/μg) were added to the medium and incubated for 10 minutes at 37° C. The cells were washed once with DMEM (2 mL) and incubated for 1.5 hours in DMEM at 4° C., whereupon dissociation occurred. Then the cells were washed once more with cold DMEM (2 mL) and the incorporated cholesterol ether was retrieved from HepG2 cells by the addition of hexane:isopropanol (3:2) solution (1 mL).

HepG2 cells [2] = settings: previously reported (Jacquet et al. 2005); positive control; cited from earlier work
[3] = Table 3, measured from data of Figure 1
[4] = Table 4, measured from data of Figure 2

Chain of human P2Y13 receptor (Q9BPV8 whole entry): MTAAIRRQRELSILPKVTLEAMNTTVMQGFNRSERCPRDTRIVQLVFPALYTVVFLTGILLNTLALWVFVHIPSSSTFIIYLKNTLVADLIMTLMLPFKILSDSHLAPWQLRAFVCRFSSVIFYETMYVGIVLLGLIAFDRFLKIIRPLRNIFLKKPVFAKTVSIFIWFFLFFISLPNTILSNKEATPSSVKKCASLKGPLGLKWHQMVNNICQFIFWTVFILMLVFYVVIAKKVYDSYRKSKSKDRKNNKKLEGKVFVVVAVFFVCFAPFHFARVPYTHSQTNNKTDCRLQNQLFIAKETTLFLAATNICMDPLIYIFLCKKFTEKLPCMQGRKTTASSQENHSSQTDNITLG

| Compound | EC50 (human P2Y13 receptor; [3]) | dose at which an effect on bile acids, bile cholesterol and bile phospholipids was shown (C57Bl6 mice) | impact on HDL uptake by HepG2 cells (HepG2 cells [1]) | EC50 (human P2Y13 receptor; [4]) | HDL uptake in HepG2 cells in vitro (HepG2 cells [2]) |
| --- | --- | --- | --- | --- | --- |
| CCOC(=O)C(C)(C)CCCC[C@@H](c1ccccc1Cl)N1CCc2sccc2C1 [Compound Ih (S-isomer)] | 33.7 µM | – | – | – | – |
| CCOc1cc(C2CC(=O)Nc3c2cnn3-c2ccccc2CC)ccc1O (stereo not shown) [Compound VIIIa, 4-(3-Ethoxy-4-hydroxy-phenyl)-1-(2-ethyl-phenyl)-1,4,5,7-tetrahydro-pyrazolo[3,4-b]pyridin-6-one] | – | 3 µg/kg | – | – | – |
| 6-[1-(2-methylaminopyrimidin-5-ylmethyl)-piperidin-4-yl]-2-piperidin-1-yl-pyrimidin-4-ol [Compound IIc] | – | 3 µg/kg | strong impact | 6.63 µM | – |
| CCOC(=O)C(C)(C)CCCC[C@H](c1ccccc1Cl)N1CCc2sccc2C1 [Compound Ih (R-isomer)] | 42.4 µM | – | strong impact | – | – |
| COc1ccc(CN2CCC(c3cc(O)nc(N4CCCCC4)n3)CC2)cc1O [Compound IIb, 6-[1-(3-Hydroxy-4-methoxybenzyl)-piperidin-4-yl]-2-piperidin-1-yl-pyrimidin-4-ol] | – | 300 µg/kg | modest impact | 0.299 µM | – |
| CC(C)(CCCCCC(c1ccccc1Cl)N1CCC(O)/C(=C/C(=O)O)C1)C(=O)O (stereo not shown) [Compound Va] | 55.2 µM | – | – | – | – |
| CSCCNc1nc(SCCC(F)(F)F)nc2c1ncn2[C@@H]1O[C@H](COP(=O)(O)OP(=O)(O)C(Cl)(Cl)P(=O)(O)O)[C@@H](O)[C@H]1O [Reference Compound, Dichloro-(((((2R,3S,4R,5R)-3,4-dihydroxy-5-(6-(2-(methylthio)ethylamino)-2-(3,3,3-trifluoropropylthio)-9H-purin-9-yl)tetrahydrofuran-2-yl)methoxy)(hydroxy)phosphoryloxy)(hydroxy)phosphoryl)-methylphosphonic acid, reference compound] | – | – | – | 0.00632 µM | increase the HDL uptake |
| COCCNCC(=O)Nc1ccc2c(c1)OCCO2 [Compound XIa, N-(2,3-Dihydrobenzo[1,4]dioxin-6-yl)-2-(2-methoxy-ethylamino)-acetamide] | – | 3 µg/kg | strong impact | 0.0489 µM | – |
| O=C(C1OCCc2ccccc21)N1CCC2(CC1)Nc1ccccc1-n1cccc12 (stereo not shown) [Compound VIIa, isochroman-1-yl(5′H-spiro[piperidine-4,4′-pyrrolo[1,2-a]quinoxaline]-1-yl)methanone] | – | 300 µg/kg | modest impact | 40.3 µM | – |
